Test results: publication PMC9530166, “Allosteric regulation of glycogen breakdown by the second messenger cyclic di-GMP” (Nature Communications, 2022)

Legend:
His6-GlgX [1] = test: Bicinchoninic acid (BCA) reducing-end enzyme assay, wild-type GlgX; type: biochemical, Streptomyces venezuelae; conditions: for stimulation of GlgX hydrolysis of substrate: 1 µM His6-GlgX, 50 µM c-di-GMP
Text: Glycogen debranching enzymes hydrolyze α-(1→6)-linked glucan branches, producing malto-oligosaccharides with reducing ends[7]. The bicinchoninic acid (BCA) assay allows accurate photometric determination of reducing ends from oligosaccharides and is based on the reduction of Cu^2+ to Cu^+. A purple copper bicinchoninate complex with an absorbance maximum at 562 nm forms from Cu^+ and bicinchoninate. […] In addition, we tested the effect of c-di-GMP on GlgX activity by using polysaccharides with different degrees of α-(1→6)-linked glucans as a substrate (Fig. 2b). While glycogen contains α-(1→6)-linked glucan branches every 8–10 residue, amylose is essentially an unbranched chain of α−1,4-linked glucose subunits. Amylopectin is composed of α−1,4-linked glucose units with α-(1→6)-linkages at intervals of ∼20 units. Pullulan is a polysaccharide polymer consisting of maltotriose units in which the three glucose units are connected by α−1,4-glycosidic bonds. Consecutive maltotriose units are linked by a α−1,6-glycosidic bond.
(§1) Fig. 2 c-di-GMP stimulates glycogen breakdown activity of GlgX in vitro. a Bicinchoninic acid (BCA) in vitro enzyme assay. The purple copper bicinchoninate complex indicating GlgX-mediated generation of reducing ends in glycogen was quantified by photometric measurements at 562 nm. A562 values were converted into reducing ends [µM glucose equivalents] based on D-glucose as a standard. Reactions contained 0.05% (w/v) glycogen from rabbit, 1 µM GlgX and increasing concentrations of c-di-GMP (0–100 µM). Source data are provided as a Source data file. b BCA assay containing 0.05% of either glycogen from rabbit, pullulan, amylopectin from maize or amylose from potato as substrates. Where appropriate, 1 µM GlgX or 50 µM c-di-GMP were added to the reaction samples. Source data are provided as a Source data file. c BCA assay as in a with or without c-di-GMP (50 µM), 0.05% glycogen from rabbit (S) and 1 µM Vnz25270, GlgX, the active site mutants GlgXD342A, GlgXE378A, GlgXD342A+E378A, or the c-di-GMP-binding mutant variant GlgXDETR49-52 as indicated. The experiment was performed three times, each time with two technical replicates. The data points represent the mean ± SD of six data points. Source data are provided as a Source data file.
Hydrolysis of carbohydrates was assessed in vitro by measuring the accumulation of reducing sugar ends using the BCA assay[42] and D-glucose as a standard for calibration (Supplementary Fig. 11). Purified enzyme was diluted to […] in 20 mM (N-2-hydroxyethylpiperazine-N′−2-ethanesulfonic acid) HEPES (pH 7.5; ionic strength, 160 mM [adjusted with NaCl]) containing 10 mM MgCl2 and […] c-di-GMP (BioLog). Samples were incubated at rt for 5 min and reactions were initiated by the addition of 0.05% of the relevant carbohydrate provided by Sigma-Aldrich: glycogen from rabbit (cat. no G8876); amylose from potato (cat. no A0512); amylopectin from maize (cat. no. 10120); and pullulan (P4516). The mixture was incubated at 37 °C in a heat block for 1 h. Next, an equal volume of BCA reagent solution (250 mM Na2CO3; 144 mM NaHCO3; 2.5 mM sodium bicinconinic acid (Sigma); 6 mM L-serine (Roth); 2.5 mM CuSO4 x 5 H2O (Roth)) was added, reactions were vortexed vigorously and incubated at 80 °C in a heat block for 30 min. Assay mixtures were then cooled to rt. 125 μl sample aliquots were transferred in duplicates to a 96 well plate and the absorbance at 562 nm was measured using a plate reader.

His6-GlgXD342A = test: BCA reducing-end enzyme assay, GlgXD342A; type: biochemical, Streptomyces venezuelae; conditions: 50 µM c-di-GMP, 0.05% glycogen from rabbit, 1 µM enzyme
Procedure: as §1, with “The experiment was performed three times, each time with two technical replicates. The data points represent the mean ± SD of six data points. Source data are provided as a Source data file.” left out
(§2) Hydrolysis of carbohydrates was assessed in vitro by measuring the accumulation of reducing sugar ends using the BCA assay[42] and D-glucose as a standard for calibration (Supplementary Fig. 11). […] 125 μl sample aliquots were transferred in duplicates to a 96 well plate and the absorbance at 562 nm was measured using a plate reader.

His6-GlgXD342A+E378A = test: BCA reducing-end enzyme assay, GlgXD342A+E378A; type: biochemical, Streptomyces venezuelae; conditions: 50 µM c-di-GMP, 0.05% glycogen from rabbit, 1 µM enzyme
Procedure: as §1, with “The experiment was performed three times, each time with two technical replicates. The data points represent the mean ± SD of six data points. Source data are provided as a Source data file.” left out
as §2

His6-GlgX [2] = test: DRaCALA with [32P]-c-di-GMP, wild-type GlgX; type: binding, Streptomyces venezuelae
Procedure: Fig. 1 GlgX binds c-di-GMP. a Quantification of c-di-GMP in S. venezuelae cell extracts using LC-MS/MS. Cells were harvested during late vegetative growth (8–10 h), transition to sporulation (12–16 h), and sporulation (18–20 h). Data are presented as the mean of biological replicates ±SD (n = 3). […] Source data are provided in the Source data file. c [^32P]-c-di-GMP binds to GlgX in DRaCALA assay indicated by dark spots in the center of the nitrocellulose membrane. For competition, excess (100 µM) of unlabeled c-di-GMP, c-di-AMP, or GTP was added to the reaction containing [^32P]-c-di-GMP and GlgX.
To determine if the interaction between Vnz29170 (herein called GlgX) and c-di-GMP is direct, we purified an N-terminally His6-tagged GlgX protein and performed nano differential scanning fluorimetry (nanoDSF) thermal shift assays. […] In addition, we used differential radial capillary action of ligand assays (DRaCALA), which allows visualization of protein-bound radiolabeled ligand as a central spot after the application of the protein-ligand mix onto nitrocellulose. Using DRaCALA we confirmed that GlgX from S. venezuelae binds ^32P-labeled c-di-GMP.
For DRaCALA assays, purified His6-GlgX (15 μg) was mixed with 0.5 μl undiluted [^32P]-c-di-GMP (42 nM) (Hartmann Analytic GmbH, Braunschweig) in binding buffer (25 mM Tris pH 8; 150 mM NaCl; 2.5% (v/v) glycerol; 5 mM MgCl2) and the reaction was incubated at rt for 5 min. For competition assays, 100 μM nonlabeled nucleotides were added to the samples and incubated at rt for 5 min prior to the addition of [^32P]-c-di-GMP. Reactions (10 μl) were spotted on the same nitrocellulose membrane (Roth), air dried for 10 min and analyzed via phosphorimaging.

Nc1nc2c(ncn2[C@@H]2O[C@@H]3CO[P@](=O)(O)O[C@H]4[C@@H](O)[C@H](n5cnc6c(=O)[nH]c(N)nc65)O[C@@H]4CO[P@](=O)(O)O[C@H]3[C@H]2O)c(=O)[nH]1 [c-di-GMP, bis-(3′−5′)-cyclic diguanosine monophosphate]
c-di-GMP concentration with saturating enzymatic activity (His6-GlgX [1]; 0.05% glycogen from rabbit, 1 µM GlgX, c-di-GMP 3.125–100 µM): 50 µM | stimulation of GlgX hydrolysis of substrate (His6-GlgX [1]; substrate 0.05% amylopectin): stimulates | stimulation of GlgX hydrolysis of substrate (His6-GlgX [1]; substrate 0.05% amylose): no stimulation | stimulation of GlgX hydrolysis of substrate (His6-GlgX [1]; substrate 0.05% glycogen): stimulates | stimulation of GlgX hydrolysis of substrate (His6-GlgX [1]; substrate 0.05% pullulan): stimulates | stimulation of enzyme activity by c-di-GMP (His6-GlgXD342A): could not be stimulated | stimulation of enzyme activity by c-di-GMP (His6-GlgXD342A+E378A): could not be stimulated | binding of 32P-labeled c-di-GMP in DRaCALA (His6-GlgX [2]; 15 µg His6-GlgX, [32P]-c-di-GMP): binds | competition with 32P-c-di-GMP for binding to GlgX (His6-GlgX [2]; excess (100 µM) unlabeled nucleotide): competed
